Key:
male CD-1 mice = experiment: Test in the mouse of aggressiveness induced by isolation; type: in vivo; details: isolated male CD-1 mice; subcutaneous administration; 30 minutes before test; three minutes observation
From the text: The animals used are male CD-1 mice. On arrival, the mice are isolated in individual cages with free access to food and drink. After a period of isolation of one month, pairs of mice that are constant in their aggressiveness are selected by observation of the latent period, the number and the duration of attacks when they are placed in each other's presence. The test takes place once a week. On the day of the test, each mouse of the pair of mice (resident mouse and intruder mouse) is given a subcutaneous injection of carrier (control animals) or of test product (treated animals) in a volume of 10 ml/kg. After 30 minutes, the intruder mouse is introduced into the cage of the resident mouse. The latent period of the first attack and the number and duration of attacks are then measured for a period of three minutes. A product is considered as specifically anti-aggressive when it reduces the number and the duration of attacks at non-sedative doses.

Male NMRI mice = experiment: Marble-burying test in the mouse; type: in vivo; details: 0.5 h, 24 marbles, 30 minutes' free exploration, read-out: effective dose 50 (ED50), inhibition of marble-burying
From the text: This test allows evaluation of the capacity of pharmacological agents to inhibit the spontaneous marble-burying behaviour in mice, the inhibition being predictive of antidepressant and/or anti-impulsive action. Male NMRI mice weighing from 20 to 25 g on the day of the experiment are placed individually in Macrolon boxes containing 5 cm of sawdust and covered with a perforated plexiglass plate. Twenty four “tiger's eye” glass marbles are evenly distributed on the sawdust at the periphery of the box. At the end of 30 minutes' free exploration, the animals are removed from the box and the number of buried marbles is counted.

5-HT2c receptors = target: T1, 5-HT2c receptors (Rattus norvegicus, UniProt P08909); experiment: Penile erection test in the rat (erections induced by RO 60-0175); type: in vivo; details: male Wistar rats; RO 60-0175 1.25 mg/kg s.c. 30 min after test compound; erections counted during 30 minutes
T1 construct: Male Wistar rats weighing from 120 to 140 g on the day of the experiment; from tissue; host or cells: whole animal (male Wistar rat), endogenous receptor
T1 sequence (P08909 33-460): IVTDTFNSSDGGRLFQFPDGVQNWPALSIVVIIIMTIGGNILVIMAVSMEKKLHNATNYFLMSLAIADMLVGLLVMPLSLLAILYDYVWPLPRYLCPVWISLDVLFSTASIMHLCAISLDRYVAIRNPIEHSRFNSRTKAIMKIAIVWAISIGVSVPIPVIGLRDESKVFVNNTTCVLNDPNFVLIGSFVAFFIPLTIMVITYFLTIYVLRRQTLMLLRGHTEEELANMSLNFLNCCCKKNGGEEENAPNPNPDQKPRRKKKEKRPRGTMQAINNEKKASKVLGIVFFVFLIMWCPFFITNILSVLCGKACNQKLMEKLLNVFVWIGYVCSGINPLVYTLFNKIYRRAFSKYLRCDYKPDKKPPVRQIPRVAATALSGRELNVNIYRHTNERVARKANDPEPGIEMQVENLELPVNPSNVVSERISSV
Protocol: The test allows the evaluation of the capacity of pharmacological agents to inhibit penile erections caused by the administration of a 5-HT2c selective agonist, RO 60-0175.
Male Wistar rats weighing from 120 to 140 g on the day of the experiment are placed individually into plexiglass observation boxes immediately after having been administered the test compound or the carrier. Thirty minutes later, the animals are administered RO 60-0175 (1.25 mg/kg, subcutaneous route) and the number of erections that occur during the 30 minutes that follow is counted.

Structure (SMILES)	melting point	other results
Cc1ccc(NC(=O)Nc2cccc(CC3=NCCN3)c2)cc1Cl.Cl	227 to 229 °C	–
COc1ccc(NC(=O)Nc2ccc(C)c(Cl)c2)cc1N1CCN(CC2COc3ccccc3O2)CC1.Cl (centres unmarked)	193 to 197 °C	–
Cl.Cl.O=C(Nc1cccc(N2CCN(CC3COc4ccccc4O3)CC2)c1)N1CCc2c1ccc1ccccc21 (centres unmarked)	194 to 196 °C	–
Cl.Cl.O=C(Nc1cccc(N2CCN(CC3COc4ccccc4O3)CC2)c1)N1CCc2cc(F)c(Cl)cc21 (centres unmarked)	202 to 204 °C	–
COc1ccc(NC(=O)Nc2ccc(C)c(C)c2)cc1N1CCN(CC2COc3ccccc3O2)CC1.Cl.Cl (centres unmarked)	234 to 236 °C	–
COc1ccc(NC(=O)Nc2ccc(F)c(Cl)c2)cc1N1CCN(CC2COc3ccccc3O2)CC1.Cl (centres unmarked)	120 to 130 °C	–
Cc1ccc(NC(=O)Nc2cccc(N3CCN(CC4COc5ccccc5O4)CC3)c2)cc1C.Cl (centres unmarked)	228 to 230 °C	–
Cl.O=C(Nc1cccc(N2CCN(CC3COc4ccccc4O3)CC2)c1)Nc1ccc(F)c(Cl)c1 (centres unmarked)	132 to 136 °C	–
Cc1cc2c(cc1Cl)N(C(=O)Nc1ccc(N3CCN(CC4COc5ccccc5O4)CC3)cc1)CC2.Cl.Cl (centres unmarked)	174 to 176 °C	–
Cc1ccc(NC(=O)Nc2ccc3c(c2)CC(c2c[nH]cn2)C3)cc1Cl.Cl (centres unmarked)	235 to 237 °C	–
Cc1ccc(NC(=O)Nc2cccc(C(C)C3=NCCN3)c2)cc1Cl.Cl (centres unmarked)	100 to 102 °C	–
CSc1ccc(NC(=O)Nc2ccc3c(c2)CC(c2c[nH]cn2)C3)cc1.Cl (centres unmarked)	243 to 245 °C	–
Cc1ccc(NC(=O)Nc2ccc3c(c2)CC(c2c[nH]cn2)C3)cc1C.Cl (centres unmarked)	232 to 234 °C	–
Cc1ccc(NC(=O)Nc2ccc3c(c2)CN(C2=NCCN2)CC3)cc1Cl.Cl	237 to 239 °C	–
Cc1ccc(NC(=O)Nc2cccc(CCc3c[nH]cn3)c2)cc1Cl.Cl	237 to 239 °C	–
Cc1ccc(NC(=O)Nc2cccc(CCC3=NCCN3)c2)cc1Cl.Cl	212 to 214 °C	–
Cc1ccc(NC(=O)Nc2ccc3c(c2)C(c2c[nH]cn2)CCC3)cc1Cl.Cl (centres unmarked)	255 to 257 °C	–
Cc1ccc(NC(=O)Nc2ccc3c(c2)CC(c2c[nH]cn2)CC3)cc1Cl.Cl (centres unmarked)	206 to 208 °C	–
Cc1ccc(NC(=O)Nc2ccc3c(c2)C(c2c[nH]cn2)CCO3)cc1Cl.Cl (centres unmarked)	> 260 °C	–
Cc1ccc(NC(=O)Nc2cccc(C(C)(C)C3=NCCN3)c2)cc1Cl.Cl	232 to 233 °C	–
COc1ccc(NC(=O)Nc2ccc(C)c(Cl)c2)cc1N1CCN(C)CC1.Cl	206 to 208 °C	–
Cc1ccc(NC(=O)Nc2ccc(C)c(N3CCN(C)CC3)c2)cc1Cl.Cl	229 to 231 °C	–
Cc1ccc(NC(=O)Nc2ccc(C)c(NC3=NCCN3)c2)cc1Cl.Cl	252 to 254 °C	–
Cc1ccc(NC(=O)Nc2cccc(NC3=NCCN3)c2)cc1Cl.Cl	180 to 185 °C	–
Cc1ccc(NC(=O)Nc2ccc(Cl)c(NC3=NCCN3)c2)cc1Cl.Cl	255 to 257 °C	–
Cc1ccc(NC(=O)Nc2cccc(N3CCN(CC4COc5ccccc5O4)CC3)c2)cc1Cl.Cl (centres unmarked) [Example 6, N-(3-Chloro-4-methylphenyl)-N′-{3-[4-(2,3-dihydro-1,4-benzodioxin-2-ylmethyl)-1-piperazinyl]phenyl}urea hydrochloride]	180 to 185 °C	inhibitory dose 50 (ID50), number and duration of attacks (male CD-1 mice): 2.5 mg/kg; ED50 (Male NMRI mice): 0.4 mg/kg; inhibitory dose 50 (ID50), inhibition of penile erections (5-HT2c receptors): 0.7 mg/kg

Source: US7026357B2, “Diphenylurea compounds” (Les Laboratoires Servier, priority 2000, dated 2006)
